From PMC9851200, “Multiparameter phenotypic screening for endogenous TFEB and TFE3 translocation identifies novel chemical series modulating lysosome function” (Autophagy, 2022)
Read-outs that look alike come from different tables or passages of the source.

How the values were obtained:
Assay in all cases: biochemical
Type in all cases: binding
[1] = biological target: T1, cellular kinases of SH-SY5Y cells (Homo sapiens, UniProt P52564); details: 2µM, SH-SY5Y cells; for inhibition at 2 µM: read-out: KiNativ in-cell binding, % Inhibition, MAP2K6
T1 sequence (P52564 1-334): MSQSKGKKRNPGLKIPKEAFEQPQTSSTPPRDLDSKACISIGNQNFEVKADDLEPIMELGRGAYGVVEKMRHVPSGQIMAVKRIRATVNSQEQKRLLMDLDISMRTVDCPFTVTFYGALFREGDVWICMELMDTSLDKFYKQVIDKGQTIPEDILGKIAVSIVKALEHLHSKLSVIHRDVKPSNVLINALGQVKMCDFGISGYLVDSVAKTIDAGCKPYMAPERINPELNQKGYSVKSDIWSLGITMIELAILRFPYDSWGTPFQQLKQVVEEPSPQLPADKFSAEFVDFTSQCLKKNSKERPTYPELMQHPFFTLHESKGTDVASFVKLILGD
Excerpt: (§1) As KINOMEscan is an in vitro assay, and as different cell types have variable kinase expression profiles we sought to determine the kinase binding profile in our SH-SY5Y TFEB-relocalization cell model. […] Bound kinases were pulled down and analyzed by mass spectrometry to determine the in situ kinase binding profile for each compound.

[2] = biological target: T2, cellular kinases of SH-SY5Y cells (Homo sapiens, UniProt O15111); details: 2µM; SH-SY5Y cells; Labeling Site Lys2; DLKPENIVLQDVGGK; read-out: KiNativ in-cell binding, % Inhibition, CHUK/IKKa
T2 construct: endogenous in cells; host or cells: SH-SY5Y
Excerpt: as §1

[3] = biological target: cellular kinases of SH-SY5Y cells (Homo sapiens, UniProt Q16566); details: 2µM, SH-SY5Y cells
Sequence of cellular kinases of SH-SY5Y cells (Homo sapiens, UniProt Q16566) (Q16566 whole entry): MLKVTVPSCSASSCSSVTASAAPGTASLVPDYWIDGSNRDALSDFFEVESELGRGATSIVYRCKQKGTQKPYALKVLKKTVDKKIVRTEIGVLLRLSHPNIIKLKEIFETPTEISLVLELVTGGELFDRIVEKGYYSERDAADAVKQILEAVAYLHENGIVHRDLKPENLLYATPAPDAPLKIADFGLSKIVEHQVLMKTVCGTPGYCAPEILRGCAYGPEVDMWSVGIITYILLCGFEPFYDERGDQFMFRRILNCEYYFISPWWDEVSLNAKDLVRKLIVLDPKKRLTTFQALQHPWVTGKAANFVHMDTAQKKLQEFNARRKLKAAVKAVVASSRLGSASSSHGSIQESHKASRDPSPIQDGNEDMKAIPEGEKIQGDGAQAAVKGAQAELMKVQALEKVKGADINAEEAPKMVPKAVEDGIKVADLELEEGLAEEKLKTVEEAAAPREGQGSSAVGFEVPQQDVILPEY
Excerpt: as §1

[4] = biological target: T3, cellular kinases of SH-SY5Y cells (Homo sapiens, UniProt P48426); details: 2µM; SH-SY5Y cells; Labeling Site ATP; AKELPTLKDNDFINEGQK; read-out: KiNativ in-cell binding, % Inhibition, PIP4K2A
T3 construct: endogenous in cells; host or cells: SH-SY5Y
Excerpt: as §1

[5] = biological target: T4, cellular kinases of SH-SY5Y cells (Homo sapiens, UniProt P16591); details: 2µM, SH-SY5Y cells
T4 construct: endogenous in cells; host or cells: SH-SY5Y
T4 sequence (P16591 whole entry): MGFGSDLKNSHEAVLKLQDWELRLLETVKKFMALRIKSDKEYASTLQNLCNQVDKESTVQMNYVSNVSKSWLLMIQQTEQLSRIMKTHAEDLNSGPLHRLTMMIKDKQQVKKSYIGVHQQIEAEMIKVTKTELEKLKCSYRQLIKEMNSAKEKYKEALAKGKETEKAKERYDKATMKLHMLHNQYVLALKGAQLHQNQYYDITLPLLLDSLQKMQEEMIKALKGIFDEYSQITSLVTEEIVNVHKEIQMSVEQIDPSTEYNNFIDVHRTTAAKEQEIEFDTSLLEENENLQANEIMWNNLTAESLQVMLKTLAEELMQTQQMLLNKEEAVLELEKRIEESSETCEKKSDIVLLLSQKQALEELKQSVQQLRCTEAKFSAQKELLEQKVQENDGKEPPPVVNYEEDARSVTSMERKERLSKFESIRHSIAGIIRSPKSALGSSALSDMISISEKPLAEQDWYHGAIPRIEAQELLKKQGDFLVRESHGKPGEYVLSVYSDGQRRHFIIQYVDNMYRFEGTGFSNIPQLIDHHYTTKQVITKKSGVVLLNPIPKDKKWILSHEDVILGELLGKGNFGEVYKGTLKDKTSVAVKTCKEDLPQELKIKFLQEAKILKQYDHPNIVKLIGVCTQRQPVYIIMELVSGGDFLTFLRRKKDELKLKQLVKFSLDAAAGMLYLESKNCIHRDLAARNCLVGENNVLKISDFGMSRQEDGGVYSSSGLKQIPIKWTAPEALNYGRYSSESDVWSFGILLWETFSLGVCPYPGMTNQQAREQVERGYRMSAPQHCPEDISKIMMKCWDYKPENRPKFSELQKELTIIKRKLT
Excerpt: as §1

[6] = biological target: cellular kinases of SH-SY5Y cells (Homo sapiens, UniProt Q9Y2U5); details: 2µM; SH-SY5Y cells; Labeling Site Lys1; ELAVKQVQFDPDSPETSKEVNALECEIQLLK; read-out: KiNativ in-cell binding, % Inhibition, MAP3K2
Excerpt: as §1

[7] = biological target: T5, cellular kinases of SH-SY5Y cells (Homo sapiens, UniProt Q92918); details: 2µM, SH-SY5Y cells, read-out: KiNativ in-cell binding, % Inhibition, MAP4K1/HPK1
T5 construct: endogenous in cells; host or cells: SH-SY5Y
T5 sequence (Q92918 whole entry): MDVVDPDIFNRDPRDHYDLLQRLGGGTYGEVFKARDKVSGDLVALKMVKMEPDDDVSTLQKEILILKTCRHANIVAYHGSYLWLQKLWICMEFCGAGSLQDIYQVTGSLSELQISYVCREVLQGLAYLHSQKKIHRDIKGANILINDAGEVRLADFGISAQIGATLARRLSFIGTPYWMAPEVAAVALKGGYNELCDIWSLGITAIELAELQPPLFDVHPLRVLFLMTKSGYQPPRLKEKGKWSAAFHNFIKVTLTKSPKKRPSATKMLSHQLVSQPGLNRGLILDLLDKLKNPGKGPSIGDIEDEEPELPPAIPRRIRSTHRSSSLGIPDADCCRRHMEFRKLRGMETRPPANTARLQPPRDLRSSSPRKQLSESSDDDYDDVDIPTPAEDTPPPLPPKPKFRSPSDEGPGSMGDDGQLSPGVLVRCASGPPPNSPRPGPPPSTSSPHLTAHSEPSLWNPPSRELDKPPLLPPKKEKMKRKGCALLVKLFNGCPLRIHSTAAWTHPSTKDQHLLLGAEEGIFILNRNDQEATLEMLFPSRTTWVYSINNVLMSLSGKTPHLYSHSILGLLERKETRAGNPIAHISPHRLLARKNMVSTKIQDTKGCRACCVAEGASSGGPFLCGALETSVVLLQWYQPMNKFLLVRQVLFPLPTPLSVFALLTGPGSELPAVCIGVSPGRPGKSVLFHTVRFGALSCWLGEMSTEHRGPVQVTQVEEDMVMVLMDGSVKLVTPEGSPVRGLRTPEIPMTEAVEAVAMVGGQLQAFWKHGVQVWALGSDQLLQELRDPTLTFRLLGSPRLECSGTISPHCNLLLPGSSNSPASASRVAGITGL
Excerpt: as §1

[8] = biological target: cellular kinases of SH-SY5Y cells (Homo sapiens, UniProt Q05397); details: 2µM, SH-SY5Y cells, read-out: KiNativ in-cell binding, % Inhibition, PTK2/FAK
Sequence of cellular kinases of SH-SY5Y cells (Homo sapiens, UniProt Q05397) (Q05397 whole entry): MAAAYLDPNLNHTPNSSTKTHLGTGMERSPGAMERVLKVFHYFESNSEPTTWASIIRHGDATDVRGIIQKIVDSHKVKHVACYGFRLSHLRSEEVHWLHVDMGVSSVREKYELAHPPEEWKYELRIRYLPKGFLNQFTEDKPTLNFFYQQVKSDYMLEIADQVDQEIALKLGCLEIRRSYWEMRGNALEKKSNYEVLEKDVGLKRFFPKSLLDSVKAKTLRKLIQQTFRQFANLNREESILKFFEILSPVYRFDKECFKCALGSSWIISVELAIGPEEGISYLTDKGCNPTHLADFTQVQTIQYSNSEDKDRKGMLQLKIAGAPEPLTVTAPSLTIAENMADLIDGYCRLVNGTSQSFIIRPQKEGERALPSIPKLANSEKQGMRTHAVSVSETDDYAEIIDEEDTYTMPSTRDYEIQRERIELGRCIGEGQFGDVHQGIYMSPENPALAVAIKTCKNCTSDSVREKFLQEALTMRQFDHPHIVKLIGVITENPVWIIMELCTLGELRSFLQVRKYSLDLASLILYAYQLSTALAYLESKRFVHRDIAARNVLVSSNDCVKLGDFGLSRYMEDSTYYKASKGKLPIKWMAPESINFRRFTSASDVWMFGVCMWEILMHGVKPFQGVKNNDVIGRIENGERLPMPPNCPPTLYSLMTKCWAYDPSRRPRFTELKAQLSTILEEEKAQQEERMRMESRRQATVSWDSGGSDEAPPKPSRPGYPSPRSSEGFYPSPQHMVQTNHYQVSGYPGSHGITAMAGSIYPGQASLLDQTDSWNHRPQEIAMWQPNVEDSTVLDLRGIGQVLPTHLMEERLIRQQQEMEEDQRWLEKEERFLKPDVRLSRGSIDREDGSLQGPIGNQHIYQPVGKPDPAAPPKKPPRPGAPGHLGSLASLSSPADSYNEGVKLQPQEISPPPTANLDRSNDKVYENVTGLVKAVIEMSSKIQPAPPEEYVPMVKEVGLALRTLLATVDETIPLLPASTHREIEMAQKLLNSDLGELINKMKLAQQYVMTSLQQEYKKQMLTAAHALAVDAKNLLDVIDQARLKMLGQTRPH
Excerpt: as §1

[9] = biological target: cellular kinases of SH-SY5Y cells (Homo sapiens, UniProt Q96GD4); details: 2µM; SH-SY5Y cells; Labeling Site Lys1; SHFIVALKVLFK; read-out: KiNativ in-cell binding, % Inhibition, AURKB/AurB
Excerpt: as §1

[10] = biological target: T6, cellular kinases of SH-SY5Y cells (Homo sapiens, UniProt Q15131); details: 2µM; SH-SY5Y cells; labeling site Lys2; peptide DLKVSNLLMTDK
T6 construct: endogenous in cells; host or cells: SH-SY5Y
Excerpt: as §1

[11] = biological target: T7, cellular kinases of SH-SY5Y cells (Homo sapiens, UniProt Q9UBF8); details: 2µM, SH-SY5Y cells, Labeling Site ATP, read-out: KiNativ in-cell binding, % Inhibition, PI4KB
T7 construct: endogenous in cells; host or cells: SH-SY5Y
T7 sequence (Q9UBF8 whole entry): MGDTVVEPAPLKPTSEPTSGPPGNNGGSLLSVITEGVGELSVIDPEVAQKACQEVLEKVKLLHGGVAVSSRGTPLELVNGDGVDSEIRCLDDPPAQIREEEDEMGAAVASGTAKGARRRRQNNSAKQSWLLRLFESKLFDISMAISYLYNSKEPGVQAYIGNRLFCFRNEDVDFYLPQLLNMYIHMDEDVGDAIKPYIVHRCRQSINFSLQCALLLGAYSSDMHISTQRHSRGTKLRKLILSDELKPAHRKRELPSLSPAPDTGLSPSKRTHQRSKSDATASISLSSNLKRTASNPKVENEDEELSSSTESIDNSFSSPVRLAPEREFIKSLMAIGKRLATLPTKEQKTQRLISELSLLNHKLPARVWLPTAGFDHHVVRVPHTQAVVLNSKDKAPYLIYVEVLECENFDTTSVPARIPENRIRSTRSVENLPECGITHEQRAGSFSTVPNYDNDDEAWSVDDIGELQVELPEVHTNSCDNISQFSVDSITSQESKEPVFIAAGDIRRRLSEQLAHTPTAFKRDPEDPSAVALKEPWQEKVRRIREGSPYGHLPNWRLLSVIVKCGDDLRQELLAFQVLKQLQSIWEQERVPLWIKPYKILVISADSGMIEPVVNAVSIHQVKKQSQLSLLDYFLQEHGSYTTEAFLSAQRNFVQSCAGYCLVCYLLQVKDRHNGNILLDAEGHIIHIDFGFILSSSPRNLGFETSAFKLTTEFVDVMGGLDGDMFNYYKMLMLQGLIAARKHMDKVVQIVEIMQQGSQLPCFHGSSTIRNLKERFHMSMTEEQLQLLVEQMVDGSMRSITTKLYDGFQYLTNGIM
Excerpt: as §1

[12] = biological target: T8, cellular kinases of SH-SY5Y cells (Homo sapiens, UniProt Q14004); details: read-out: KiNativ in-cell binding, % Inhibition, CDK13/CHED
T8 construct: endogenous in cells; host or cells: SH-SY5Y
Excerpt: as §1

[13] = biological target: cellular kinases of SH-SY5Y cells (Homo sapiens, UniProt P68400); details: 2µM; SH-SY5Y cells; labeling site Protein Kinase Domain; peptide GGPNIITLADIVKDPVSR
Excerpt: as §1

[14] = biological target: T9, cellular kinases of SH-SY5Y cells (Homo sapiens, UniProt Q52WX2); details: 2µM; SH-SY5Y cells; Labeling Site Lys2; DIKPENVLLFDR; read-out: KiNativ in-cell binding, % Inhibition, SBK1/SBK
T9 construct: endogenous in cells; host or cells: SH-SY5Y
T9 sequence (Q52WX2 whole entry): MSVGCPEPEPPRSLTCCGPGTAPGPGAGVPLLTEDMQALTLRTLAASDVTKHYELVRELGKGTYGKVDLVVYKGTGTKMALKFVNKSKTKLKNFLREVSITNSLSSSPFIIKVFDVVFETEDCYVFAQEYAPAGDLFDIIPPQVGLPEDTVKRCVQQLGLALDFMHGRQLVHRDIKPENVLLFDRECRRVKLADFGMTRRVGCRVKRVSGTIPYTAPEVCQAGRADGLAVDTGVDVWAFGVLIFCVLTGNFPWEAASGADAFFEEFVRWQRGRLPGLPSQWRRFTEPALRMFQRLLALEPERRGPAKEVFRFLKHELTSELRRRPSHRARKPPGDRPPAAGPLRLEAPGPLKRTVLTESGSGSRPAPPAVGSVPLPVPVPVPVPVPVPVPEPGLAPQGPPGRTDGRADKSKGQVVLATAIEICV
Excerpt: as §1

[15] = biological target: T10, cellular kinases of SH-SY5Y cells (Homo sapiens, UniProt O60307); details: 2µM; SH-SY5Y cells; Labeling Site Lys2; DLKPDNLLITSLGHIK; read-out: KiNativ in-cell binding, % Inhibition, MAST3
T10 construct: endogenous in cells; host or cells: SH-SY5Y
Excerpt: as §1

[16] = biological target: T11, cellular kinases of SH-SY5Y cells (Homo sapiens, UniProt Q8TCG2); details: 2µM; SH-SY5Y cells; labeling site ATP; peptide SEEPYGQLNPKWTK
T11 construct: endogenous in cells; host or cells: SH-SY5Y
Excerpt: as §1

[17] = biological target: cellular kinases of SH-SY5Y cells (Homo sapiens, UniProt O14965); details: 2µM, SH-SY5Y cells, read-out: KiNativ in-cell binding, % Inhibition, AURKA/AurA
Sequence of cellular kinases of SH-SY5Y cells (Homo sapiens, UniProt O14965) (O14965 whole entry): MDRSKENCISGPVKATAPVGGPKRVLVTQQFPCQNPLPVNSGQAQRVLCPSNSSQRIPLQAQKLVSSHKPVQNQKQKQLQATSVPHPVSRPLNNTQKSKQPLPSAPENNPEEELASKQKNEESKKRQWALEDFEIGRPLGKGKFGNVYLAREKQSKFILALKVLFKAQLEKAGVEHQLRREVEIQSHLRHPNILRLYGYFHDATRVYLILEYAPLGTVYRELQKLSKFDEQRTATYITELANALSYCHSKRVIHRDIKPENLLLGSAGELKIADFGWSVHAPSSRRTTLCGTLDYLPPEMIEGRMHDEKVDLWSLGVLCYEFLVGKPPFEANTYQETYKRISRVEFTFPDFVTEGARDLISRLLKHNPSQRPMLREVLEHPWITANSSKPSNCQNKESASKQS
Excerpt: as §1

[18] = biological target: T12, cellular kinases of SH-SY5Y cells (Homo sapiens, UniProt Q16644); details: 2µM; SH-SY5Y cells; Labeling Site ATP Loop; QVLGLGVNGKVLECFHR; read-out: KiNativ in-cell binding, % Inhibition, MAPKAPK3
T12 construct: endogenous in cells; host or cells: SH-SY5Y
Excerpt: as §1

With `Cc1cccc(-c2nc(Nc3ccc4ncsc4c3)c3ccccc3n2)n1` [NK140] the inhibition at 2 µM ([1]; Labeling Site Activation Loop, MCDFGISGYLVDSVAKTIDAGCKPYMAPER) was -15.9%, the inhibition at 2 µM ([1]; Labeling Site Lys1, HVPSGQIMAVKR) was 15.4% and the “KiNativ in-cell binding, MAP2K6” value ([1]; labeling site Lys2, peptide DVKPSNVLINALGQVK) was 17.8. The inhibition at 2 µM [2] was -29.6%, the “KiNativ in-cell binding, CaMK4” value ([3]; labeling site Lys1, peptide GTQKPYALKVLK) was -10.9 and the “KiNativ in-cell binding, CaMK4” value ([3]; labeling site Lys2, peptide DLKPENLLYATPAPDAPLK) was -28.9. For the same compound, the inhibition at 2 µM [4] was 29.7%, the “KiNativ in-cell binding, FER” value ([5]; labeling site Activation Loop, peptide QEDGGVYSSSGLKQIPIK) was -42.5 and the “KiNativ in-cell binding, FER” value ([5]; labeling site Lys1, peptide TSVAVKTCKEDLPQELK) was -53.4. It also gave an inhibition at 2 µM [6] of -2%, an inhibition at 2 µM ([7]; Labeling Site Lys1, DKVSGDLVALKMVK) of 6.9% and an inhibition at 2 µM ([7]; Labeling Site Lys2, DIKGANILINDAGEVR) of 30.2%. It also gave an inhibition at 2 µM ([8]; Labeling Site Activation Loop, YMEDSTYYKASK) of 16.9%, an inhibition at 2 µM ([8]; Labeling Site Lys1, CIGEGQFGDVHQGIYMSPENPALAVAIKTCK) of 18% and an inhibition at 2 µM [9] of 27.7%. For the same compound, the “KiNativ in-cell binding, CDK10” value [10] was 3.3, the inhibition at 2 µM ([11]; LLSVIVKCGDDLRQELLAFQVLK) was 29.7% and the inhibition at 2 µM ([11]; VPHTQAVVLNSKDK) was 32.3%. For the same compound, the inhibition at 2 µM [12] was -3.7%, the “KiNativ in-cell binding, CSNK2A1” value [13] was 31.0 and the inhibition at 2 µM [14] was 3.5%. The inhibition at 2 µM [15] was 1.2%, the “KiNativ in-cell binding, PI4K2B” value [16] was 11.9 and the inhibition at 2 µM ([17]; Labeling Site Lys1, FILALKVLFK) was 8.2%. The inhibition at 2 µM ([17]; Labeling Site Lys2, DIKPENLLLGSAGELK) was 18% and the inhibition at 2 µM [18] was 16.2%.
